These results are taken from US12178786B2, “Combination of cellular immunotherapy” (CRAGE medical Co., Limited, priority 2018, dated 2024).

Data set [1] relates to IL2. The data set can be described thus: Effect of sorafenib on cytokine secretion of CAR T cells (Cytometric Bead Array). Format: cell-based, human. The note with it: general statement of the applicant's finding. As for the experimental part: As for the specific steps, referring to the steps in the manual of The Cytometric Bead Array System (BD, USA), which are briefly described as follows:
b) The microspheres (cytometric bead array system, BD, USA) capturing the human cytokine IL2, IFN-γ, and TNF-α are taken to mix in a suspension.
c) The mixture of the microspheres for capturing and detection antibody are added into the standard or supernatant sample, incubating at room temperature in the dark; after the incubation is completed, it is washed with washing buffer, then centrifuging, and discarding the supernatant.
The secretion levels of IL-2, IFN-γ and TNF-α are detected by flow cytometry, and the results are shown in FIGS. 8A, 8B, and 8C, wherein ns means p>0.05; *p<0.05; **p<0.01; ***p<0.001, one-way ANOVA.

The conditions of data set [2]: compound II administrated alone in the clinical trial; cited from earlier work.

`CNC(=O)c1cc(Oc2ccc(NC(=O)Nc3ccc(Cl)c(C(F)(F)F)c3)cc2)ccn1` [sorafenib]: the “secretion of the cytokine IL2 by CAR T cells” value in data set [1] is “promote CAR T cells to secrete the cytokine IL2”. In data set [2], the “approximate concentration in the patient's body” value was ~6.5 µM.
